Our source for the IC50 and EC50 values is patent publication US10323043B2, “Derivatives of macrocyclic N-aryl-tricyclopyrimidine-2-amine polyethers as inhibitors of FTL3 and JAK” (PIERRE FABRE MEDICAMENT, priority 2014, dated 2019).

One assay concerns the target T1, JAK2 (Homo sapiens, UniProt O60674).
T1 construct: purchased Life Technologies PV4210
Description: LanthaScreen TR-FRET binding test, JAK2. Conditions: recombinant JAK2 15 nM, kinase tracer 236 150 nM, 25° C., 1 hour; read-out: Inhibition (IC50) of JAK2 enzyme. How it is done:
(§1) FLT3 (#PV3182), JAK2 (#PV4210) and JAK3 (#PV3855) recombinant enzymes were purchased from Life Technologies. FLT3-ITD (#0778-0000-1) and FLT3^D835Y (#14-610) proteins were purchased from ProQinase and Merck Millipore, respectively. All the tests were carried out in 384-well plates. The principle of these binding tests is based on the LanthaScreen® TR-FRET methodology from Life Technologies.
The reaction mixture (15 μL total volume) contains the following compounds: 15 nM JAK2 or JAK3, 150 nM kinase tracer 236 (Life Technologies, #PV5592) for JAK2 or 3 nM for JAK3 and 6 nM LanthaScreen® anti-GST antibody coupled to a europium chelate (Life Technologies, #PV5594) for both enzymes.
(§2) The compounds are evaluated at 8 different concentrations prepared by making dilutions from a starting 10 mM stock solution in dimethylsulfoxide (DMSO) (Sigma, #D8418). The final DMSO concentration in the test is 1%. The reaction is carried out at 25° C. for 1 hour and detected on the EnVision® reader (Perkin Elmer) according to the recommendations of the supplier, Life Technologies.
(§3) The results are presented (Table 1) as the concentration values of the compound at which 50% of the kinase activity is inhibited, IC50 (μM), generated using the PRISM software (GraphPad).

A further assay has as its target T2, FLT3-ITD (Homo sapiens, UniProt P36888).
T2 construct: FLT3-ITD (#0778-0000-1) and FLT3^D835Y (#14-610) proteins were purchased from ProQinase and Merck Millipore, respectively; fused on or other part: GST tag, inferred from detection with the anti-GST europium antibody
T2 sequence (P36888 1-993): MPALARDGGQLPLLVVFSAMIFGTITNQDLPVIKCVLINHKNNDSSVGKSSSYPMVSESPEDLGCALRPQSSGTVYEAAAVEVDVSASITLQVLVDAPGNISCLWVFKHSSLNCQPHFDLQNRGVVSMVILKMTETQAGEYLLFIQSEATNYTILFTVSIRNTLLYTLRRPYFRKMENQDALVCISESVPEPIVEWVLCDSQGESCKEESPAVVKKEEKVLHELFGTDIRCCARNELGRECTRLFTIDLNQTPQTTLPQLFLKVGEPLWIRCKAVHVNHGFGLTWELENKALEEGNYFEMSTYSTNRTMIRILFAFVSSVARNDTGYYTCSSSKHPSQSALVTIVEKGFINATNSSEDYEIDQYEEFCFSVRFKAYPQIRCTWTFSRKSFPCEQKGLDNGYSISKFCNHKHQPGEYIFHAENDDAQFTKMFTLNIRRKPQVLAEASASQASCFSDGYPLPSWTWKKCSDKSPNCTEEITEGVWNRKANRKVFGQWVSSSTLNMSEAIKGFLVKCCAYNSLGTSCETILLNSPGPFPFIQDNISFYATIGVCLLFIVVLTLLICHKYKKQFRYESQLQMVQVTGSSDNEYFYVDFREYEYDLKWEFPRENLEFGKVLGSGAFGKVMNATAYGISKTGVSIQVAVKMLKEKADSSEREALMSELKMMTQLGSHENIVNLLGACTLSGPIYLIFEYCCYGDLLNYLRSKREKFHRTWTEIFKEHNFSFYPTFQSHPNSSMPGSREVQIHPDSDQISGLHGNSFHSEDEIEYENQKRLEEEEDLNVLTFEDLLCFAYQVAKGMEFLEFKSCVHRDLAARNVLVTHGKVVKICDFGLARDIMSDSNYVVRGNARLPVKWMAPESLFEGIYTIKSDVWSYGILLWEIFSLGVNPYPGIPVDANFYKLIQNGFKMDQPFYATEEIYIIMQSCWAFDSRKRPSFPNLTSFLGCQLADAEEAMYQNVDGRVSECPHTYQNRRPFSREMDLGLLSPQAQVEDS
Description: LanthaScreen TR-FRET binding test, FLT3-ITD. Conditions: FLT3-ITD 15 nM, kinase tracer 236 3 nM, 25° C., 1 hour; read-out: Inhibition (IC50) of FLT3-ITD enzyme. Here is the method: as §1
The reaction mixture (15 μL total volume) contains the following compounds: 15 nM FLT3, FLT3-ITD or FLT3^D835Y, 3 nM kinase tracer 236 (Life Technologies, #PV5592) and 6 nM LanthaScreen® anti-GST antibody coupled to a europium chelate (Life Technologies, #PV5594) for FLT3-ITD and FLT3^D835Y or 6 nM LanthaScreen® anti-His antibody coupled to a europium chelate (Life Technologies, #PV5596) for FLT3.
as §2, §3
A general note: In TR-FRET formats the signal depends on donor and acceptor labels being close together.

The next assay concerns MOLM-13 cell line. Description: Antiproliferative activity (ATPLite cell viability), MOLM-13. It counts as cell-based. Conditions: Homo sapiens, MOLM-13 (acute myeloid leukemia, FLT3-ITD), 72 h incubation, read-out: Cytotoxicity (EC50) on MOLM13 cell line. How it is done:
The characteristics of the cell lines used are as follows (Table 2):
MV4-11 and MOLM-13 cell lines are cultured in the culture medium specified in Table 2 above and according to the supplier's recommendations. The tests are carried out in 96-well plates. The cells are divided in two at D0. At D1, they are seeded and treated with the compounds at various concentrations and incubated for 72 h at 37° C. and 5% CO2. The dilution of the compounds from stock solutions in DMSO (Sigma, #D8418) was made semi-logarithmically for a final concentration in the culture medium of 0.1%. At day 4, cell viability is evaluated by assaying the ATP released by the living cells using the ATPLite® kit (Perkin Elmer, #6016947). The EC50 values (concentration of the compound necessary to obtain 50% of the maximum effect) are calculated using curve-fitting software.
For orientation: Cellular ATP, detected with luciferase, serves as a proxy for viable cell number.

T1 sequence (O60674 whole entry): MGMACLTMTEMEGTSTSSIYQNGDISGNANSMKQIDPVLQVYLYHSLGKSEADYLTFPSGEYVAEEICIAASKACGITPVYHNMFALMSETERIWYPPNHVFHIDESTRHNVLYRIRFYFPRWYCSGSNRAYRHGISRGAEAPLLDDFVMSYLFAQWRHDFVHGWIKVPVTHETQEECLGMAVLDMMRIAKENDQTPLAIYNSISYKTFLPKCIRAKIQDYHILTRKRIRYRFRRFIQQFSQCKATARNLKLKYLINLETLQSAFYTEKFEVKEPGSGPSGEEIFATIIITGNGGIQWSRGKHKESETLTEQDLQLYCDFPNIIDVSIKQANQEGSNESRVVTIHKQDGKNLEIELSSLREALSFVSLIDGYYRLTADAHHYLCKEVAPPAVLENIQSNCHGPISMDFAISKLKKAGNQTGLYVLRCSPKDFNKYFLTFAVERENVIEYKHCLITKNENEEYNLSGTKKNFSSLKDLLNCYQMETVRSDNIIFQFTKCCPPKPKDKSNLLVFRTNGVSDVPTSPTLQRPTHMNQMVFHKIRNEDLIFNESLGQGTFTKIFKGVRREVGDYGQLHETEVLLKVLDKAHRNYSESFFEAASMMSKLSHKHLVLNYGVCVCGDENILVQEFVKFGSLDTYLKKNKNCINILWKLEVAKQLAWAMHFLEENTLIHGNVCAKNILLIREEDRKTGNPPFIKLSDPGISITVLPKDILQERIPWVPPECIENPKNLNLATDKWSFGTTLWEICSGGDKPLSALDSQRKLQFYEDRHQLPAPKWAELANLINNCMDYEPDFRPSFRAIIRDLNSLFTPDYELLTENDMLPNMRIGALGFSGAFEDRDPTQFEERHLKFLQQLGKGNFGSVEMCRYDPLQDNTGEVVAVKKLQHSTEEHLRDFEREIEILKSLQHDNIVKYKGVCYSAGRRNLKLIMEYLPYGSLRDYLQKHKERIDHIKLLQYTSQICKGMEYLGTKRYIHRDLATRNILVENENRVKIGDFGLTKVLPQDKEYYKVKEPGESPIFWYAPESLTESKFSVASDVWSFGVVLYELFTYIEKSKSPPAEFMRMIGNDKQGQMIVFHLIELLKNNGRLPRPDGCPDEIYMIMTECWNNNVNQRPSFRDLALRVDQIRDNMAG

Take `CN1CCN(c2ccc3cc2OCCOCCOc2ccc4c(c2)-c2nc(ncc2CC4)N3)CC1` [Compound 3]: the IC50 at JAK2 came to 17.5 nM; on FLT3-ITD, 0.14 nM. Also, the 50% effective concentration (EC50) in the assay on MOLM-13 cell line is 5.6 nM.
Consider `c1cc(N2CCNCC2)c2cc1Nc1ncc3c(n1)-c1cc(ccc1CC3)OCCOCCO2` [Compound 5], for which the IC50 is 13 nM at JAK2 and 1.3 nM on FLT3-ITD. In the assay with MOLM-13 cell line, the EC50 came out at 1.8 nM.
`c1cc(N2CCC(N3CCOCC3)C2)c2cc1Nc1ncc3c(n1)-c1cc(ccc1CC3)OCCOCCO2` (stereo not drawn) [Compound 7]: the figures for the half-maximal inhibitory concentration (IC50) at JAK2 and at FLT3-ITD were 40 nM and 6.4 nM, respectively. Moreover, the EC50 with MOLM-13 cell line worked out at 34 nM.
For `c1cc(N2CCC(N3CCCCC3)CC2)c2cc1Nc1ncc3c(n1)-c1cc(ccc1CC3)OCCOCCO2` [Compound 10], the figures for the half-inhibitory concentration (IC50) at JAK2 and at FLT3-ITD were 7.7 nM and 1.3 nM, respectively. The EC50 with MOLM-13 cell line was found to be 6 nM.
For the compound `c1cc(OCCN2CCCC2)c2cc1Nc1ncc3c(n1)-c1cc(ccc1CC3)OCCOCCO2` [Compound 14], the IC50 at JAK2 is 34 nM; at FLT3-ITD, 2 nM. Also, the EC50 in the assay on MOLM-13 cell line amounted to 4.5 nM.
As to `OC1CCN(c2ccc3cc2OCCOCCOc2ccc4c(c2)-c2nc(ncc2CC4)N3)CC1` [Compound 19], the 50% inhibitory concentration (IC50) on JAK2 stood at 20 nM; at FLT3-ITD, 2.4 nM. Also, in the assay on MOLM-13 cell line, the EC50 was determined as 13.4 nM.
Take `CN1CC=C(c2ccc3cc2OCCOCCOc2ccc4c(c2)-c2nc(ncc2CC4)N3)CC1` [Compound 23]: the IC50 stood at 130 nM at JAK2 and 1.7 nM at FLT3-ITD. The EC50 with MOLM-13 cell line was 6.6 nM.
With `c1cc(N2CC3CNCC3C2)c2cc1Nc1ncc3c(n1)-c1cc(ccc1CC3)OCCOCCO2` (stereo not drawn) [Compound 29], the IC50 on JAK2 amounted to 11.5 nM; at FLT3-ITD, 0.79 nM. Moreover, the EC50 with MOLM-13 cell line amounted to 15 nM.
Regarding `CN(C)C1CCN(c2ccc3cc2OCCOCCOc2ccc4c(c2)-c2nc(ncc2CC4)N3)C1` (stereo not drawn) [Compound 30], the values for the IC50 on JAK2 and at FLT3-ITD were 10 nM and 1 nM, respectively. Further, in the assay with MOLM-13 cell line, the EC50 was determined as 15 nM.
Regarding `CN1CCN(c2ccc3cc2OCCOCCOc2ccc4c(c2)-c2nc(ncc2CC4)N3)CC1(C)C` [Compound 40], the half-maximal inhibitory concentration (IC50) was 7.25 nM on JAK2 and 0.51 nM at FLT3-ITD. In addition, in the assay with MOLM-13 cell line, the 50% effective concentration (EC50) is 20 nM.
As for `c1cc(N2CC3CCC(C2)N3)c2cc1Nc1ncc3c(n1)-c1cc(ccc1CC3)OCCOCCO2` [Compound 42], the IC50 on JAK2 stood at 6.7 nM; at FLT3-ITD, 1.1 nM. Moreover, the EC50 in the assay on MOLM-13 cell line was determined as 7 nM.
Consider `c1cc(N2C[C@H]3C[C@@H]2CN3)c2cc1Nc1ncc3c(n1)-c1cc(ccc1CC3)OCCOCCO2` [Compound 44], for which the half-inhibitory concentration (IC50) at JAK2 stood at 33.5 nM; on FLT3-ITD, 1.5 nM. In the assay with MOLM-13 cell line, the half-maximal effective concentration (EC50) was 8.8 nM.

Broadly, the IC50 is the concentration that inhibits the measured activity by half. What is called EC50 is the concentration at which the effect is half-maximal.
